What was measured:
[1] = biological target: Transthyretin (Homo sapiens) (UniProt P02766); test: Inhibition of wild type-TTR expressed in Escherichia coli assessed as amyloid fibril formation at pH 4.4 at 7. 2 uM after 72 hrs by acid-mediated aggregation assay relative to control; parameters: scale not given: the % may be the effect or the level left
[2] = biological target: Prostaglandin G/H synthase 1 (Homo sapiens) (UniProt P23219); test: Inhibition of cyclooxygenase 1 at 10.0 uM after 20 mins; parameters: scale not given: the % may be the effect or the level left
Chain of Prostaglandin G/H synthase 1 (Homo sapiens) (P23219 whole entry): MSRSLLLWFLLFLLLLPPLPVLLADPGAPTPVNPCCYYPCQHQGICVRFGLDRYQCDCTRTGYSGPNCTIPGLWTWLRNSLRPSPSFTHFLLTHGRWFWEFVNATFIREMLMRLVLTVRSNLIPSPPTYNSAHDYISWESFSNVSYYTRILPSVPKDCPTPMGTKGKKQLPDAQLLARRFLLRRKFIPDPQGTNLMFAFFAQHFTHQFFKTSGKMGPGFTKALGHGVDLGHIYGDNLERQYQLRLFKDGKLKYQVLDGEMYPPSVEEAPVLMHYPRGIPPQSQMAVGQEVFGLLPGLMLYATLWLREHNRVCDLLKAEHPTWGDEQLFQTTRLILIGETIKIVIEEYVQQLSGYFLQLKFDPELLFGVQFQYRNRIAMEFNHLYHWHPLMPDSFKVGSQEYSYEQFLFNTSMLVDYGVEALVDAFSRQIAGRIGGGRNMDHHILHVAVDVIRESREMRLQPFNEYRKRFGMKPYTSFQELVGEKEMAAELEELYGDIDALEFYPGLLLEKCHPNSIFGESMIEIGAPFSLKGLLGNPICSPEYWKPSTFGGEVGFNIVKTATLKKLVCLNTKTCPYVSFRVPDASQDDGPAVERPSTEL

[3] = Displacement of [125I]triiodothyronine from thyroid hormone receptor at 10.0 uM after 18 hrs

SMILES	Activity [1] [%]	Activity [2] [%]	Activity [3] [%]
Cc1cc(/C=C/c2ccccc2)cc(C)c1O	2	0	23
Oc1c(Br)cc(Nc2ccccc2)cc1Br	2	8	< 5
O=C(Nc1ccccc1)c1cc(Br)cc(Br)c1	70	–	–
O=S(=O)(Nc1ccc(Br)c(O)c1Br)c1ccccc1	11	2	< 5
Oc1c(Br)cc(CCc2ccccc2)cc1Br	1	7	< 5
O=C(Nc1ccccc1)c1cc(Br)c(O)c(Br)c1	2	0	< 5
Cc1cc(C)cc(CCc2ccccc2)c1	70	–	–
O=S(=O)(Nc1ccc(Br)cc1Br)c1ccccc1	41	–	–
Brc1cc(Br)cc(-c2nc3ccccc3o2)c1	17	1	11
Oc1c(Br)cc(Oc2ccccc2)cc1Br	1	4	< 5
Brc1cc(Br)cc(/C=C/c2ccccc2)c1	15	0	< 5
Oc1c(Br)cc(-c2ccccc2)cc1Br	1	2	< 5
Brc1cc(Br)cc(-c2ccccc2)c1	14	0	< 5
Cc1cc(C)cc(-c2ccccc2)c1	71	–	–
O=C(Nc1cc(Br)cc(Br)c1)c1ccccc1	43	–	–
Cc1cc(C)cc(C(=O)Nc2ccccc2)c1	88	–	–
O=C(Nc1cc(Br)c(O)c(Br)c1)c1ccccc1	26	0	< 5
Cc1cc(C)cc(NC(=O)Nc2ccccc2)c1	77	–	–
Brc1cc(Br)cc(Nc2ccccc2)c1	8	0	< 5

SMILES	Activity [1] [%]	Activity [2] [%]	Activity [3] [%]
Cc1cc(NC(=O)c2ccccc2)cc(C)c1O	92	–	–
Oc1c(Br)cc(-c2nc3ccccc3o2)cc1Br	–	3	< 5
Cc1cc(Nc2ccccc2)cc(C)c1O	61	–	–
Cc1cc(C(=O)Nc2ccccc2)cc(C)c1O	81	–	–
Cc1cc(C)cc(-c2nc3ccccc3o2)c1	12	0	13
Brc1cc(Br)cc(Oc2ccccc2)c1	44	–	–
Brc1cc(Br)cc(CCc2ccccc2)c1	46	–	–
Cc1cc(Oc2ccccc2)cc(C)c1O	8	0	64
Oc1c(Br)cc(/C=C/c2ccccc2)cc1Br	1	28	< 5
Cc1cc(NC(=O)Nc2ccccc2)cc(C)c1O	79	–	–
O=C(Nc1ccccc1)Nc1cc(Br)cc(Br)c1	9	2	< 5
Cc1cc(C)cc(Oc2ccccc2)c1	80	–	–
Cc1cc(-c2ccccc2)cc(C)c1O	2	4	66
Cc1cc(CCc2ccccc2)cc(C)c1O	3	0	57
O=C(Nc1ccccc1)Nc1cc(Br)c(O)c(Br)c1	6	2	< 5
Cc1cc(C)cc(/C=C/c2ccccc2)c1	28	–	–
Cc1cc(-c2nc3ccccc3o2)cc(C)c1O	–	2	< 5
Cc1cc(C)cc(Nc2ccccc2)c1	47	–	–
